Key:
[1] = Toxicity study of Boc-lysine trifluoroacetic acid (BLT) in nude mice; type: in vivo; conditions: 100 mg/kg BLT i.p. in DMSO on days 1, 8, 15; male nude mice; vs DMSO-treated controls
Description: Rationale: BLT must have no detectable toxic effects at levels that result in an MRS-visible signal in vivo if it were to be used as an imaging agent. To verify this, we monitored the toxicity of 100 mg/kg BLT (˜3 mM plasma concentration), which, based on previously published studies of fluorinated drugs, was expected to result in an MRS-detectable signal. (Hamstra, et al., Mol Ther, 10: 916-928, 2004; McSheehy, et al., Cancer Res, 60: 2122-2127, 2000; Gade, et al., Magn Reson Med, 52: 169-173, 2004; Chung, et al., Clin Cancer Res, 10:3863-3870, 2004; Aboagye, et al., Cancer Res, 58: 4075-4078, 1998).
Methods and Results: Four male nude mice were injected intraperitoneally with 100 mg/kg BLT in 40 μl of DMSO and 4 mice were injected with 40 μl of DMSO alone on days 1, 8, and 15 of the study. The mice were monitored daily for changes in weight, skin and hydration status, activity, behavior, feeding, and neurological status. On day 16, blood samples were collected, and blood counts and hepatic and kidney functions assessed (bilirubin, total protein, aspartate aminotransferase, alanine aminotransferase, creatinine, and blood urea nitrogen). At the end of the study, following animal euthanasia, mice were dissected and tissue samples obtained for histology (hematoxylin-eosin staining).

PC-3 tumor = test: 19F/31P/1H MRS of PC-3 tumors after BLT injection, with or without SAHA treatment (Example 2); type: in vivo, mice
Description: Methods and Results: PC-3 cells (10^6) were injected into the flank of male nude mice. MR experiments were first performed when tumors were ˜1 cm in diameter. Mice were anesthetized using isoflurane. A 10-mm home-built ^19F surface coil (milled from a polymer-based flexible substrate using a ProtoMat C100/HF (LPKF Laser & Electronics, Wilsonville, Oreg.)) was placed over the tumor, and the animal placed at the center of the magnet. Varacator diodes in the impedance matching circuitry provided a means to match and tune the coil from the console. Following localization, a T2-weighted image of the tumor was recorded using the RARE sequence (TE=45 ms, TR=2 s) via the ^19F surface coil tuned to ^1H. Localized shimming was performed using FASTMAP and achieved ˜20 Hz line width for the water peak. A localized ^1H spectrum was then acquired using a single-voxel PRESS sequence (TE=21 ms, TR=3 s, 96 scans) with VAPOR water suppression. Following retuning of the coil to ^19F, a ‘baseline’ ^19F spectrum was then acquired using a one-pulse sequence (45° flip angle, 300 scans, TR=1 s). A microsphere filled with 20 mM trifluorotoluene (−63.7 ppm) served as an external reference. 100 mg/kg BLT (in 40 μl DMSO) was then injected i.p. and sequential 5-minute ^19F spectra acquired over 90 minutes. The ^19F surface coil was then replaced with a ^31P coil and a spectrum acquired from the tumor region using a one-pulse sequence (30° flip angle, 900 scans, TR=2 s). Adequate SNR was achieved within 30 min.
Following 1 week of treatment, the MR study was repeated.

[2] = test system: PC3 human prostate cancer cells tumor; test: In vivo detection of HDAC inhibition by MRS in PC3 tumors (Example 3); design: species or system mice
Description: Methods. 5×10^6 PC3 human prostate cancer cells suspended in matrigel were injected subcutaneously in male CD-1 nude mice (n=5). When an average tumor volume of 0.2 cm^3 was reached, mice were separated into 2 groups. The treated group (n=3) was treated daily with 50 mg/kg SAHA intraperitoneally, while the control mice were treated with carrier DMSO. MRS was performed on a 4.7T Biospec (Bruker Biospin, Billerica, Mass.) prior to treatment (day 0) and on days 2 and 7 of treatment, using a 1.5 cm (inner diameter) dual-tuned ^1H/^19F surface coil. […] BLT levels determined by ^19F MRS were normalized to the external reference aaa-trifluorotoluene (TFT) (Sigma-Aldrich Chemical Co., St. Louis, Mo.) in a micro-cell spherical bulb placed at a permanent location relative to the coil and expressed as % of maximum tumor BLT levels in each study. For each mouse and also for average values, a paired t-test of BLT evolution was performed for days 2 and 7 with respect to day 0. ^1H MRS data was analyzed by normalizing the tCho signal either to the total ^1H signal or to the internal water signal.

MB435 tumor xenografts = test: PET of [18F]-FAHA in MB435 tumor xenograft-bearing nude rats (second Example 4); type: in vivo, rat; conditions: blocking study, SAHA 50 mg/kg i.p. 1 hour prior; p<0.01 unpaired t test
Description: Methods: [^18F]-FAHA was synthesized with high specific activity according to a method developed at M. D. Anderson Cancer Center. Human breast cancer cells, cell line MB435, grown as described in Example 3, were used to grow tumor xenografts in nude rats. Ten million cancer cells were injected subcutaneously in the neck area of six nude rats. When tumors were 1 cm in diameter, animals were anesthetized, injected with [^18F]-FAHA (37 MBq) and PET imaging was performed (dynamic) up to 60 min post-injection. Two days after the initial imaging, another PET imaging with [^18F]-FAHA was performed using a […] (SAHA). The animals were given SAHA (50 mg/kg) intraperitoneally 1 hour prior to injection of the radiotracer.

[3] = test system: HDAC activity in rat brain; test: PET imaging of HDAC activity in rat brain using [18F]-FAHA (Example 6); type: in vivo; conditions: SAHA 50 mg/kg i.p. 1 hour prior; p<0.01 unpaired t test
Description: Methods: [^18F]-FAHA was synthesized according to the methods developed in our laboratory in high specific activity. Imaging studies with [^18F]-FAHA were conducted in five rats using a PET scanner under isoflurane inhalation anesthesia. The animals were injected intravenously with 37 MBq of [^18F]-FAHA and dynamic scanning PET (0-60 min) was performed. During the imaging session, the rats were anesthetized with 1-1.5 vol % isoflurane/oxygen inhalation and continuously heated with a heating lamp. Two days after the initial study, another PET imaging was performed with [^18F]-FAHA using an […] (SAHA). Each animal was given SAHA (50 mg/kg), intraperitoneally 1 hour prior to injection of the [^18F]-FAHA.
In Table 6, “baseline” refers to brain uptake of FAHA without blocking by SAHA.

Row | Structure (SMILES) | toxicity (weight, behavior, blood counts, hepatic and kidney functions, histology) [1] | decrease in tumor BLT levels (PC-3 tumor; first 50 min following BLT injection i.p., PC-3 tumor, 19F MRS) [%] | 19F MRS of BLT as indicator of HDAC inhibition ([2]; PC3 tumors, SAHA 50 mg/kg daily i.p., days 0, 2, 7, 100 mg/kg BLT i.p.) | tumor growth (PC-3 tumor; 50 mg/kg SAHA in DMSO daily i.p., PC-3 tumor, preliminary data) | BLT levels in the tumor in vivo (19F MRS, normalized to tumor size) (PC-3 tumor; 1 week of 50 mg/kg SAHA daily i.p. vs DMSO control and pre-treatment) | phosphomonoesters and choline-containing metabolites (31P MRS and 1H MRS) ([2]; PC3 tumors following SAHA treatment 50 mg/kg daily i.p.) | effect on uptake of [18F]-FAHA inside tumor (MB435 tumor xenografts) | effect on uptake of [18F]-FAHA inside brain [3]
1 | CC(C)(C)OC(=O)N[C@@H](CCCCN)C(=O)O.O=C(O)C(F)(F)F [BLT, Boc-lysine trifluoroacetic acid] | no indication of significant toxicity was observed | ~25 | detects HDAC inhibition prior to effect on tumor size | – | – | – | – | –
2 | O=C(CCCCCCC(=O)Nc1ccccc1)NO [SAHA, suberoylanilide hydroxamic acid, reference compound] | – | – | – | inhibition of tumor growth | higher | transient increase | significantly inhibited | significantly inhibited
